Experiments:
[1] = tested on: gram negative/gram positive bacteria; test: Synergistic effect of soap ingredients with/without Carvacrol; type: cell-based; conditions: for Efficacy against gram negative/gram positive bacteria: bacterial growth inhibition, ingredients with/without Carvacrol; for Synergistic effect: synergism with the Carvacrol
Protocol: Main ingredients of NMP free V100, (2-Phenoxyethanol, Caprylyl glycol and Hexylene Glycol) were analyzed with/without Carvacrol.

[2] = tested on: gram negative/gram positive bacteria; test: Synergistic effect of soap ingredients with/without Oregano Oil; type: cell-based; conditions: for Efficacy against gram negative/gram positive bacteria: inhibition, ingredients with/without Oregano Oil; for Synergistic effect: synergism with Oregano Oil
Protocol: Main ingredients of NMP free V100, 2-Phenoxyethanol, Caprylyl glycol and Hexylene Glycol were analyzed in the concentrations that they appear in the Hydromer Antiseptic Soap with/without Oregano Oil.

Molecule | Efficacy against gram negative/gram positive bacteria [1] | Efficacy against gram negative/gram positive bacteria [2] | Synergistic effect [1] | Synergistic effect [2]
Hexylene Glycol [0.008% Hexylene Glycol] | NO Inhibition | NO Inhibition | – | –
CCCCCCC(O)CO (centres unmarked) [0.02% Caprylyl Glycol, Caprylyl Glycol] | NO Inhibition | NO Inhibition | act synergistically | act synergistically
Cc1ccc(C(C)C)cc1O [0.2% Carvacrol, Carvacrol] | NO Inhibition | – | – | –
OCCOc1ccccc1 [0.035% 2-Phenoxyethanol, 2-Phenoxyethanol] | NO Inhibition | NO Inhibition | act synergistically | act synergistically

From patent US9474701B2, “Antimicrobial soaps containing carvacrol and methods of using same” (Hydromer, Inc., priority 2014, dated 2016)
